Experimental data published in patent US11207331B2, “Agents, compositions and methods for enhancing neurological function” (University of Southern California, priority 2007, dated 2021).

What was measured:
Type in all cases: in vivo, mouse
[1] = test system: reactive microglial cells; assay: Microglial reaction (OX42 Western blot, Iba1 staining)
Description: (§1) Further studies were conducted using a dosing regime of once a week for six months administered subcutaneously. Three and six months old 3×Tg-AD and age-matched non-Tg mice were chosen for the experiments, since AD pathology (Aβ) starts development at 3-month and abundant accumulation at 6-months. Allopregnanolone was subcutaneously (s.c.) administrated with 10 mg/kg once per week for 6 months. For neurogenesis and neurosurvival study, BrdU, IdU and CIdU were intraperitoneal (i.p.) injected at the first 5 days, mid 5 days and 5 days before sacrifice during 6-month treatment. After 6 months of allopregnanolone treatment, mice, at 9- and 12-month old, were sacrificed.
Western blot analysis was conducted with rabbit polyclonal anti-CD11b/c (OX42) which recognizes reactive microglial cells.

[2] = test system: hippocampus of 3×TgAD mice; assay: Long-term treatment with BrdU, IdU and CldU labelling; conditions: 10 mg/kg once a week for 6 months, begun at 3 or 6 months of age
Description: In yet another study, THP (10 mg/kg once a week for 6 months) was administered to mice beginning at 3 months or 6 months of age. The cell proliferation marker, 5-bromodeoxyuridine (BrdU) was injected (100 mg/kg) one hour after initial THP treatment and once per day for the next four days to detect cell proliferation and cell survival over the six month treatment period. After 3 months treatment, the mice were injected 5 times with another nucleotide analog iododeoxyuridine (one per day). After 6 months treatment, the mice were injected with chlorodeoxyuridine (CldU) 5 times (once per day). Using specific antibodies, BrdU, IdU, and CldU incorporated cells will identify the 6 month survival, 3 month survival, and newly formed cells respectively. The mice were then sampled for biochemical, IHC, and flow cytometry assay. The results from mice with THP treatment initiated at 3 months old are shown in FIGS. 20B and 20C and initiated at 6 months old are shown in FIGS. 20D and 20E. The aim was to determine whether or not desensitization to THP was occurring.

[3] = test system: Beta amyloid binding alcohol dehydrogenase (ABAD); assay: ABAD expression (Western blot, antibody ERAB)
Description: as §1
Beta amyloid binding alcohol dehydrogenase (ABAD) was probed with antibody ERAB (1:500, Abcam). […] Immunofluorescent staining using goat polyclonal anti-ERAB (Santa Cruz) confirmed the results obtained by Western Blot analysis. The concentration of ABAD immunoactive cells is less in THP-treated brains than in the brains treated with the vehicle.

## CC(=O)[C@H]1CC[C@H]2[C@@H]3CC[C@H]4C[C@H](O)CC[C@]4(C)[C@H]3CC[C@]12C [THP, 3α-hydroxy-5α-pregnan-20-one]
[1]; 9-month and 12-month 3×Tg
  anti-CD11b/c (OX42) band intensities: no significant differences
[1]; hippocampal CA1
  anti-Iba1 immunofluorescent staining: lower levels of immunoactivity in THP-treated hippocampal CA1
[2]
  responsiveness of the brain (desensitization): still responsive to THP at 3 and 6 months
[3]; 9-month 3×Tg mice
  decrease in ABAD level relative to vehicle: 30±4%
[3]; 12-month 3×Tg mice
  decrease in ABAD level relative to vehicle: 20±7%
